According to patent publication US11633402B2, “RET inhibitor” (CHUGAI SEIYAKU KABUSHIKI KAISHA, priority 2012, dated 2023):
pIC50: −log10 of the molar value.

Columns and labels:
RET = RET (Homo sapiens, UniProt P07949); details: high concentration (1,000 nM); Cancer Cell 19(5) 679-690, 2011; cited from earlier work
[1] = test system: cell lines expressing KIF5B-RET; details: J Clin Oncol 30, 2012, suppl; Abstract no: 7510; cited from earlier work
[2] = test system: LC-2/ad cells (CCDC6-RET fusion gene); assay: Cell growth inhibitory activity against non-small cell lung cancer cell line LC-2/ad (CellTiter-Glo); format: cell-based; details: Homo sapiens, 120 h, read-out: cell growth inhibition IC50 value, LC-2/ad cells
Method: Cell growth inhibitory activity was evaluated using a non-small cell lung cancer cell line LC-tad (R1KEN, J Thorac Oncol. 2012 December, 7 (12), 1872-6) harboring CCDC6-RET fusion gene.
The LC-2/ad cells were seeded into a 96-well plate at a concentration of 2,000 cells/well in a medium of a 1:1 mixture of RPMI-1640 and Ham containing 15% FBS and 25 mM HEPES and cultured overnight at 37° C. in the presence of 5% CO2. […] Dimethyl sulfoxide was added as a negative control. After culture at 37° C. for 5 days in the presence of 5% CO2, a cell counting reagent CellTiter-Glo® Luminescent Cell Viability Assay was added thereto and stirred, followed by the measurement of luminescence intensity using a luminescence measurement apparatus Envision. The measurement value in a well supplemented with only a medium was defined as a cell viability of 0%, while the measurement value in a well supplemented with dimethyl sulfoxide was defined as a cell viability of 100%. […] The IC50 value was determined from the obtained values by the logistic regression method.

TT cells (RET C634W) = assay: Cell growth inhibitory activity against thyroid medullary cancer cell line TT (CellTiter-Glo); format: cell-based; details: Homo sapiens, 120 h, read-out: cell growth inhibition IC50 value, TT cells
Method: Cell growth inhibitory activity was evaluated using a thyroid medullary cancer cell line TT (American Type Culture Collection) with a RET kinase active mutation (C634W).
The TT cells were seeded into a 96-well plate at a concentration of 5,000 cells/well in F-12K Nutrient Mixture (Life Technologies Corporation) containing 10% FBS and cultured overnight at 37° C. in the presence of 5% CO2. […] Dimethyl sulfoxide was added as a negative control. After culture at 37° C. for 5 days in the presence of 5% CO2. a cell counting reagent CellTiter-Glo® Luminescent Cell Viability Assay was added thereto and stirred, followed by the measurement of luminescence intensity using a luminescence measurement apparatus Envision. The measurement value in a well supplemented with only a medium was defined as a cell viability of 0%, while the measurement value in a well supplemented with dimethyl sulfoxide was defined as a survival rate of 100%. […] The IC50 value was determined from the obtained values by the logistic regression method.

[3] = test system: LC-2/ad-implanted mouse models; assay: Antitumor activity in xenograft mouse model harboring CCDC6-RET fusion gene; format: in vivo; details: SCID mice, oral once a day 20 mg/kg or 60 mg/kg for 14 days
Source text: LC-2/ad was subcutaneously implanted to SCID mice and randomized after tumor size reached 200 to 350 mm^3. The administration of the compound was started on the day of randomization. The vehicles used for dissolving the compound were 0.02 N HCl, 10% dimethyl sulfoxide. 10% Cremophor EL, 15% PEG400 and 15% HPCD (2-hydroxypropyl-β-cyclodextrin) (indicated by final concentration).

Ba/F3 KIF5B-RET cells = assay: Cell growth inhibitory activity against KIF5B-RET-expressing Ba/F3 cells (CellTiter-Glo); format: cell-based; details: Mus musculus, BaF3, 48 h; read-out: cell growth inhibition IC50 value, Ba/F3 KIF5B-RET cells
Method: An expression plasmid CS-GS104J-M67 (GeneCopoeia) containing KIF5B-RET variant 1 (gene in which a region from the N-terminus of KIF5B CDS to exon 15 was fused with a region from exon 12 of RET CDS to the C-terminus) (SEQ ID NO: 5) was transfected into mouse lymphocytes Ba/F3 (RIK FN Cell Bank) by electroporation. After transfection, the cells were cultured overnight in an RPMI-1640 medium (Sigma-Aldrich) containing 10% FBS (Bovogen Biologicals) and 1 ng/mL recombinant mouse IL-3 (R&D systems). Then, the culture supernatant was replaced with an RPMl-1640 medium containing 10% LBS. The cells were seeded into a 96-well plate by the limiting dilution method. Approximately 2 weeks later, the expression of phosphorylated RET in cells grown in the absence of IL-3 was detected by Western blotting. […]
The Ba/F3 KIF5B-RET cells were seeded into a 96-well plate at a concentration of 2,500 cells/well in an RPMI-1640 medium containing 10% FBS. […] After culture at 37° C. for 2 days in the presence of 5% CO2, a cell counting reagent CellTiter-Glo® Luminescent Cell Viability Assay (Pronged Corporation) was added thereto and stirred, followed by the measurement of luminescence intensity using a luminescence measurement apparatus Envision (PerkinElmer). […] The IC50 value was determined from the obtained values by the logistic regression method.

[4] = test system: KIF5B-RET-expressing cells; details: Nature Medicine 2012, 18, p. 378-381; cited from earlier work

RET, sequence (P07949 29-1114): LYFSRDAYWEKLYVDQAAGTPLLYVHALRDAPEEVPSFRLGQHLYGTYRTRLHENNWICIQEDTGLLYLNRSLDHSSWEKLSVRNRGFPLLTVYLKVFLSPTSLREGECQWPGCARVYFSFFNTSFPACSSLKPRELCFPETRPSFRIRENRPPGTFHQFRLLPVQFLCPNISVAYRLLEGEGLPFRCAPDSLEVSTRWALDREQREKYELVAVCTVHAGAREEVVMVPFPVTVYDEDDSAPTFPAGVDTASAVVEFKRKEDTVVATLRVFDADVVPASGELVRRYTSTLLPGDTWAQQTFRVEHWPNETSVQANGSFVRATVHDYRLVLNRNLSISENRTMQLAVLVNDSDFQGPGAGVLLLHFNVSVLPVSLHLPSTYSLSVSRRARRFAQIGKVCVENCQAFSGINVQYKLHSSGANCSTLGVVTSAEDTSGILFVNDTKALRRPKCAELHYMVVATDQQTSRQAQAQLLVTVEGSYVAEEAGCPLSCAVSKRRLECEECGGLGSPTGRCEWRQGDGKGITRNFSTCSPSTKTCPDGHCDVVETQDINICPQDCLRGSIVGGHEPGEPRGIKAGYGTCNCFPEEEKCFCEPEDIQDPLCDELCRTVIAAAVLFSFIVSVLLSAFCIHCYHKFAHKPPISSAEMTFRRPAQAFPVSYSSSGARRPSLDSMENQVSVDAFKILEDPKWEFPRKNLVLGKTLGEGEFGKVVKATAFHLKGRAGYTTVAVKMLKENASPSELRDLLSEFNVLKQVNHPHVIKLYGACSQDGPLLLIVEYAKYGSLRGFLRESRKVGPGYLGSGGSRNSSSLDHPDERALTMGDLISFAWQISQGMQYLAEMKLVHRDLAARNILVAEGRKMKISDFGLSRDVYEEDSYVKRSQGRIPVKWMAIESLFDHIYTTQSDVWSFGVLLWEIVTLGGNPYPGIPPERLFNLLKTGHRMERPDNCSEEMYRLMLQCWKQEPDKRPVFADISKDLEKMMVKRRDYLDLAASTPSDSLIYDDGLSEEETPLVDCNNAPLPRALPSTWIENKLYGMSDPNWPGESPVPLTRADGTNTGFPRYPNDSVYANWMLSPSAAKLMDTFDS

SMILES: CCc1cc2c(cc1N1CCC(N3CCOCC3)CC1)C(C)(C)c1[nH]c3cc(C#N)ccc3c1C2=O [drawing 3]
- kinase inhibition in Ambit Kinase Screening test (RET): inhibits many kinases including RET

SMILES: CNC(=O)c1cc(Oc2ccc(NC(=O)Nc3ccc(Cl)c(C(F)(F)F)c3)cc2)ccn1 [sorafenih]
- cell growth inhibitory effect against cell lines expressing KIF5B-RET [1]: cell growth inhibitory effect

SMILES: COc1cc2nccc(Oc3ccc(NC(=O)C4(C(=O)Nc5ccc(F)cc5)CC4)cc3)c2cc1OC [XL184]
- cell growth inhibitory effect against cell lines expressing KIF5B-RET [1]: cell growth inhibitory effect

SMILES: CCc1cc2c(cc1N1CCC(N3CCOCC3)CC1)C(C)(C)c1[nH]c3cc(C#N)ccc3c1C2=O [compound 1, 9-ethyl-6,6-dimethyl-8-(4-morpholin-4-yl-piperidin-1-yl)-11-oxo-6,11-dihydro-5H-benzo[b]carbazole-3-carbonitrile]
- pIC50 [2]: 6.72
- pIC50 (TT cells (RET C634W)): 6.72
- antitumor activity (tumor growth) ([3]; LC-2/ad subcutaneous): dose-dependent tumor growth inhibitory effect and tumor regression
- body weight loss [3]: significant body weight loss of a mouse was not observed
- pIC50 (Ba/F3 KIF5B-RET cells): 7.07

SMILES: C[C@@H](Oc1cc(-c2cnn(C3CCNCC3)c2)cnc1N)c1c(Cl)ccc(F)c1Cl [crizotinih]
- cell growth inhibitory activity against KIF5B-RET-expressing cells [4]: no cell growth inhibitory activity
